Laboratory results: ChEMBL document CHEMBL5518215, “Unlocking Antibacterial Potential: Key-Site-Based Regulation of Antibacterial Spectrum of Peptides” (J Med Chem, 2024)

Columns and labels:
Escherichia coli [1] = test: Antimicrobial activity against Escherichia coli 25922 assessed as absence bacterial growth measured after 18 to 24 hrs incubation by NCCLS method; format: functional; details: time 18-24 hrs
Escherichia coli [2] = test: Antimicrobial activity against Escherichia coli K88 assessed as absence bacterial growth measured after 18 to 24 hrs incubation by NCCLS method; format: functional; details: time 18-24 hrs
Salmonella typhimurium [3] = test: Antimicrobial activity against Salmonella typhimurium 14028 assessed as absence bacterial growth measured after 18 to 24 hrs incubation by NCCLS method; format: functional, Salmonella enterica subsp. enterica serovar Typhimurium; details: Salmonella enterica, time 18-24 hrs
[4] = Antimicrobial activity against Salmonella pullorum C7913 assessed as absence bacterial growth measured after 18 to 24 hrs incubation by NCCLS method; format: functional, Salmonella enterica subsp. enterica serovar Pullorum; details: Salmonella enterica, time 18-24 hrs
Pseudomonas aeruginosa [5] = test: Antimicrobial activity against Pseudomonas aeruginosa 27853 assessed as absence bacterial growth measured after 18 to 24 hrs incubation by NCCLS method; format: functional; details: time 18-24 hrs
Acinetobacter baumannii [6] = test: Antimicrobial activity against Acinetobacter baumannii 1.6769 assessed as absence bacterial growth measured after 18 to 24 hrs incubation by NCCLS method; format: functional; details: time 18-24 hrs
Enterococcus faecalis [7] = test: Antimicrobial activity against Enterococcus faecalis 29212 assessed as absence bacterial growth measured after 18 to 24 hrs incubation by NCCLS method; format: functional; details: time 18-24 hrs
Listeria monocytogenes [8] = test: Antimicrobial activity against Listeria monocytogenes 1.10753 assessed as absence bacterial growth measured after 18 to 24 hrs incubation by NCCLS method; format: functional; details: time 18-24 hrs
Bacillus cereus [9] = test: Antimicrobial activity against Bacillus cereus 1.932 assessed as absence bacterial growth measured after 18 to 24 hrs incubation by NCCLS method; format: functional; details: time 18-24 hrs
Staphylococcus aureus [10] = test: Antimicrobial activity against Staphylococcus aureus 29213 assessed as absence bacterial growth measured after 18 to 24 hrs incubation by NCCLS method; format: functional; details: time 18-24 hrs
Staphylococcus aureus [11] = test: Antimicrobial activity against Methicillin-resistant Staphylococcus aureus 43300 assessed as absence bacterial growth measured after 18 to 24 hrs incubation by NCCLS method; format: functional; details: time 18-24 hrs
[12] = tested on: Staphylococcus epidermidis; test: Antimicrobial activity against Staphylococcus epidermidis 12228 assessed as absence bacterial growth measured after 18 to 24 hrs incubation by NCCLS method; format: functional; details: time 18-24 hrs
Staphylococcus aureus [13] = test: Antimicrobial activity against Staphylococcus aureus 29213 assessed as absence bacterial growth measured after 18 to 24 hrs incubation by NCCLS m; format: functional; details: time 18-24 hrs
Escherichia coli [14] = test: Antimicrobial activity against Escherichia coli 25922 assessed as bacterial killing measured after 16 hrs incubation; format: functional
Escherichia coli [15] = test: Antimicrobial activity against Escherichia coli K88 assessed as bacterial killing measured after 16 hrs incubation; format: functional
Salmonella typhimurium [16] = test: Antimicrobial activity against Salmonella typhimurium 14028 assessed as bacterial killing measured after 16 hrs incubation; format: functional, Salmonella enterica subsp. enterica serovar Typhimurium; details: Salmonella enterica
Salmonella typhimurium [17] = test: Antimicrobial activity against Salmonella typhimurium C7731 assessed as bacterial killing measured after 16 hrs incubation; format: functional, Salmonella enterica subsp. enterica serovar Typhimurium; details: Salmonella enterica
[18] = Antimicrobial activity against Salmonella pullorum C7913 assessed as bacterial killing measured after 16 hrs incubation; format: functional, Salmonella enterica subsp. enterica serovar Pullorum; details: Salmonella enterica
Pseudomonas aeruginosa [19] = test: Antimicrobial activity against Pseudomonas aeruginosa 27853 assessed as bacterial killing measured after 16 hrs incubation; format: functional
Acinetobacter baumannii [20] = test: Antimicrobial activity against Acinetobacter baumannii 1.6769 assessed as bacterial killing measured after 16 hrs incubation; format: functional
Enterococcus faecalis [21] = test: Antimicrobial activity against Enterococcus faecalis 29212 assessed as bacterial killing measured after 16 hrs incubation; format: functional
Listeria monocytogenes [22] = test: Antimicrobial activity against Listeria monocytogenes 1.10753 assessed as bacterial killing measured after 16 hrs incubation; format: functional
Bacillus cereus [23] = test: Antimicrobial activity against Bacillus cereus 1.932 assessed as bacterial killing measured after 16 hrs incubation; format: functional
Staphylococcus aureus [24] = test: Antimicrobial activity against Staphylococcus aureus 29213 assessed as bacterial killing measured after 16 hrs incubation; format: functional
Staphylococcus aureus [25] = test: Antimicrobial activity against Methicillin-resistant Staphylococcus aureus 43300 assessed as bacterial killing measured after 16 hrs incubation; format: functional
[26] = tested on: Staphylococcus epidermidis; test: Antimicrobial activity against Staphylococcus epidermidis 12228 assessed as bacterial killing measured after 16 hrs incubation; format: functional
Staphylococcus aureus [27] = test: Antimicrobial activity against Staphylococcus aureus 25923 assessed as bacterial killing measured after 16 hrs incubation; format: functional
Salmonella typhimurium [28] = test: Antimicrobial activity against Salmonella typhimurium C7731 assessed as absence bacterial growth measured after 18 to 24 hrs incubation by NCCLS method; format: functional, Salmonella enterica subsp. enterica serovar Typhimurium; details: Salmonella enterica, time 18-24 hrs
Escherichia coli [29] = test: Antimicrobial activity against Escherichia coli 25922 assessed as absence bacterial growth measured after 18 to 24 hrs incubation in presence of 50% serum by NCCLS method; format: functional; details: time 18-24 hrs
Escherichia coli [30] = test: Antimicrobial activity against Escherichia coli 25922 assessed as absence bacterial growth measured after 18 to 24 hrs incubation in presence of 25% serum by NCCLS method; format: functional; details: time 18-24 hrs
Escherichia coli [31] = test: Antimicrobial activity against Escherichia coli 25922 assessed as absence bacterial growth measured after 18 to 24 hrs incubation in presence of 12.5% serum by NCCLS method; format: functional; details: time 18-24 hrs
Escherichia coli [32] = test: Antimicrobial activity against Escherichia coli 25922 assessed as absence bacterial growth measured after 18 to 24 hrs incubation in presence of NaCl by NCCLS method; format: functional; details: time 18-24 hrs
Escherichia coli [33] = test: Antimicrobial activity against Escherichia coli 25922 assessed as absence bacterial growth measured after 18 to 24 hrs incubation in presence of KCl by NCCLS method; format: functional; details: time 18-24 hrs
Escherichia coli [34] = test: Antimicrobial activity against Escherichia coli 25922 assessed as absence bacterial growth measured after 18 to 24 hrs incubation in presence of NH4Cl by NCCLS method; format: functional; details: time 18-24 hrs
Escherichia coli [35] = test: Antimicrobial activity against Escherichia coli 25922 assessed as absence bacterial growth measured after 18 to 24 hrs incubation in presence of MgCl2 by NCCLS method; format: functional; details: time 18-24 hrs
Escherichia coli [36] = test: Antimicrobial activity against Escherichia coli 25922 assessed as absence bacterial growth measured after 18 to 24 hrs incubation in presence of ZnCl2 by NCCLS method; format: functional; details: time 18-24 hrs
Escherichia coli [37] = test: Antimicrobial activity against Escherichia coli 25922 assessed as absence bacterial growth measured after 18 to 24 hrs incubation in presence of FeCl3 by NCCLS method; format: functional; details: time 18-24 hrs
Erythrocyte = test: Hemolytic activity in human RBC at effective concentration measured after 1 hr by microplate reader analysis; format: toxicity, cell-based
[38] = Cytotoxicity against mouse RAW264.7 cells assessed as cell survival rate measured after 8 hrs by MTT assay; format: toxicity, cell-based
[39] = Cytotoxicity against human HEK-293T cells assessed as cell survival rate measured after 8 hrs by MTT assay; format: toxicity, cell-based
[40] = Cytotoxicity against porcine IPEC-J2 cells assessed as cell survival rate measured after 8 hrs by MTT assay; format: toxicity, cell-based, Sus scrofa; details: pig

H-AKLWLKAAKLWLKAAKLWLKA-NH2
8 µM: MBC [18]
16 µM: MIC (Listeria monocytogenes [8])
1 µM: MIC (Escherichia coli [1]) | MIC (Salmonella typhimurium [3]) | MIC (Acinetobacter baumannii [6]) | MBC (Escherichia coli [14]) | MBC (Acinetobacter baumannii [20])
0.5 µM: MIC (Escherichia coli [2]) | MBC (Escherichia coli [15]) | MBC (Salmonella typhimurium [17]) | MIC (Salmonella typhimurium [28])
32 µM: MBC (Listeria monocytogenes [22])
4 µM: MIC (Enterococcus faecalis [7]) | MBC (Pseudomonas aeruginosa [19]) | MBC (Enterococcus faecalis [21]) | MBC (Staphylococcus aureus [25]) | MBC [26] | MBC (Staphylococcus aureus [27])
2 µM: MIC [4] | MIC (Pseudomonas aeruginosa [5]) | MIC (Bacillus cereus [9]) | MIC (Staphylococcus aureus [10]) | MIC (Staphylococcus aureus [11]) | MIC [12] | MIC (Staphylococcus aureus [13]) | MBC (Salmonella typhimurium [16]) | MBC (Bacillus cereus [23]) | MBC (Staphylococcus aureus [24])

H-GKLWLKGCKLWLKGGKLWLKG-NH2
> 64 µM: IC50 at 8 h [38] | IC50 at 8 h [39] | IC50 at 8 h [40]
32 µM: MIC (Pseudomonas aeruginosa [5]) | MIC (Staphylococcus aureus [11]) | MBC (Salmonella typhimurium [17]) | MBC (Pseudomonas aeruginosa [19]) | MBC (Staphylococcus aureus [25])
8 µM: MIC (Escherichia coli [1]) | MIC (Salmonella typhimurium [3]) | MIC (Acinetobacter baumannii [6]) | MBC (Escherichia coli [14]) | MIC (Salmonella typhimurium [28]) | MIC (Escherichia coli [33]) | MIC (Escherichia coli [34]) | MIC (Escherichia coli [36]) | MIC (Escherichia coli [37])
> 32 µM: MIC (Enterococcus faecalis [7]) | MIC (Listeria monocytogenes [8]) | MIC (Staphylococcus aureus [10]) | MIC [12] | MIC (Staphylococcus aureus [13]) | MBC (Enterococcus faecalis [21]) | MBC (Listeria monocytogenes [22]) | MBC (Staphylococcus aureus [24]) | MBC [26] | MBC (Staphylococcus aureus [27]) | MIC (Escherichia coli [29]) | MIC (Escherichia coli [30]) | MIC (Escherichia coli [31]) | MIC (Escherichia coli [32]) | MIC (Escherichia coli [35])
4 µM: MIC (Bacillus cereus [9]) | MBC [18] | MBC (Bacillus cereus [23])
2 µM: MIC (Escherichia coli [2]) | MIC [4] | MBC (Escherichia coli [15])
16 µM: MBC (Salmonella typhimurium [16]) | MBC (Acinetobacter baumannii [20])
> 128 µM: HC10 (Erythrocyte)

H-GKLWLKGFKLWLKGGKLWLKG-NH2
36.6 µM: IC50 at 8 h [39]
8 µM: MBC (Salmonella typhimurium [16]) | MBC (Staphylococcus aureus [25]) | MIC (Salmonella typhimurium [28])
4 µM: MIC (Pseudomonas aeruginosa [5]) | MIC (Staphylococcus aureus [10]) | MIC [12] | MIC (Staphylococcus aureus [13]) | MBC (Enterococcus faecalis [21]) | MBC (Staphylococcus aureus [24]) | MBC [26] | MBC (Staphylococcus aureus [27]) | MIC (Escherichia coli [32]) | MIC (Escherichia coli [33]) | MIC (Escherichia coli [35])
1 µM: MIC (Escherichia coli [2]) | MBC (Escherichia coli [15])
31 µM: IC50 at 8 h [38]
35.7 µM: IC50 at 8 h [40]
2 µM: MIC (Escherichia coli [1]) | MIC (Salmonella typhimurium [3]) | MIC (Acinetobacter baumannii [6]) | MIC (Enterococcus faecalis [7]) | MIC (Bacillus cereus [9]) | MIC (Staphylococcus aureus [11]) | MBC (Escherichia coli [14]) | MBC [18] | MBC (Acinetobacter baumannii [20]) | MBC (Bacillus cereus [23]) | MIC (Escherichia coli [34]) | MIC (Escherichia coli [36]) | MIC (Escherichia coli [37])
> 32 µM: MIC (Listeria monocytogenes [8]) | MBC (Listeria monocytogenes [22]) | MIC (Escherichia coli [29]) | MIC (Escherichia coli [30])
128 µM: HC10 (Erythrocyte)
16 µM: MBC (Pseudomonas aeruginosa [19]) | MIC (Escherichia coli [31])
0.5 µM: MIC [4]
32 µM: MBC (Salmonella typhimurium [17])
